Results on 3 compounds are retold here after patent publication US20230025807A1 (priority 2019, published 2023).

Each structure is given as a SMILES string.

The assay has as its target T1, Human CD38 (Homo sapiens, UniProt P28907).
T1 construct: purchased BPS Bioscience 79287
T1 sequence (P28907 1-300): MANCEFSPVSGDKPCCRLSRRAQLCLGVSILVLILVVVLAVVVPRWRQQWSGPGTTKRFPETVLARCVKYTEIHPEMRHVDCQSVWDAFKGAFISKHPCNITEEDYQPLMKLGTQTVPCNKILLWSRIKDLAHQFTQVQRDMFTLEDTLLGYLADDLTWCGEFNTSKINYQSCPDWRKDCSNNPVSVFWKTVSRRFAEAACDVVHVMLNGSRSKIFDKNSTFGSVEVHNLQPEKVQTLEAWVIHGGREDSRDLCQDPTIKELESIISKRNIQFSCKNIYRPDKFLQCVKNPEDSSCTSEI
Put plainly: biochemical. Here is the method: CD38 hydrolase buffer (4×) was thawed on ice and 1×CD38 hydrolase buffer was prepared by diluting 4×CD38 hydrolase buffer with water. CD38 hydrolase enzyme was diluted to […] with 1×CD38 hydrolase buffer (10 ng/well). Master mix was prepared by mixing equal volumes of water and CD38 hydrolase buffer (4×) and 10 μl of the mix was added to all the wells. Following master mix addition, 10 μl of the inhibitors and 20 μl of CD38 hydrolase enzyme were added to the wells. For wells designated blank, 10 μl and 20 μl of 1×CD38 hydrolase buffer was added respectively in place of CD38 enzyme and inhibitors. The plate was covered and incubated 30 min at room temperature with slow shaking at 400 rpm. After 30 min incubation, the plate was removed and 10 μl of diluted ε-NAD substrate was added to all the wells. The plate is incubated for 10 min, spun at 1200 rpm for 30 secs to remove bubbles and read in Tecan Spark using a fluorometer setting of excitation 300 nm and emission 410 nm. The reading for the blank was subtracted from all the values. IC50 for the test compounds were determined by using Graphpad prism software v7.0.
The compound `COCCO[C@H]1CC[C@H](NC(=O)c2cc(-n3ccnc3)cc3ccn(C)c23)CC1` [Example 54, 5-(1H-imidazol-1-yl)-N-((1r,4r)-4-(2-methoxyethoxy)cyclohexyl)-1-methyl-1H-indole-7-carboxamide] yielded an IC50 of 375 nM. In turn, `COCCO[C@H]1CC[C@H](NC(=O)c2cc(-n3ccnc3)cc3[nH]cc(C#N)c23)CC1` [Example 56, 3-cyano-6-(1H-imidazol-1-yl)-N-((1r,4r)-4-(2-methoxyethoxy)cyclohexyl)-1H-indole-4-carboxamide] returned an IC50 of 9.8 nM. Next, `COCCO[C@H]1CC[C@H](NC(=O)c2nc(-n3ccnc3)cc3cc[nH]c23)CC1` [Example 59, 5-(1H-imidazol-1-yl)-N-((1r,4r)-4-(2-methoxyethoxy)cyclohexyl)-1H-pyrrolo[2,3-c]pyridine-7-carboxamide]: 6 nM.

A word on the IC50: it is the concentration that inhibits the measured activity by half. Low readings indicate inhibition by little substance, high ones a need for much substance.
